In patent publication US9796704B2, “Substituted quinazolines as receptor-type kinase inhibitors” (Symphony Evolution, Inc., priority 2002, dated 2017):

Assays:
EGFR = EGFR (Homo sapiens (Human), UniProt P00533); test: EGFR kinase inhibition, luciferase-coupled chemiluminescent assay (LCCA); details: read-out: EGFR IC50
ErbB2 = ErbB2 (Homo sapiens (Human), UniProt P04626); test: ErbB2 kinase inhibition, AlphaScreen; type: biochemical
Method: Kinase activity and compound inhibition are investigated using one or more of the three assay formats described below. The ATP concentrations are selected near its Michaelis-Menten constant (KM) for each individual kinase. Dose-response experiments are performed at ten different inhibitor concentrations in a 384-well plate format. […] These parameters are obtained by nonlinear regression algorithm built into ActivityBase software (available from ID Business Solutions Ltd., of Guildford, Surrey, UK). ^33P Phosphoryl Transfer Assay (Radiometric)

EphB4 = EphB4 (Homo sapiens (Human), UniProt P54760); test: EphB4 kinase inhibition, 33P phosphoryl transfer assay (radiometric); type: biochemical
KDR = KDR (Homo sapiens (Human), UniProt P35968); test: KDR kinase inhibition, luciferase-coupled chemiluminescent assay (LCCA); details: read-out: KDR IC50
EphA2 = EphA2 (Homo sapiens (Human), UniProt P29317); test: EphA2 kinase inhibition, luciferase-coupled chemiluminescent assay (LCCA); details: read-out: EphA2 IC50
Sequence of EphA2 (P29317 598-890): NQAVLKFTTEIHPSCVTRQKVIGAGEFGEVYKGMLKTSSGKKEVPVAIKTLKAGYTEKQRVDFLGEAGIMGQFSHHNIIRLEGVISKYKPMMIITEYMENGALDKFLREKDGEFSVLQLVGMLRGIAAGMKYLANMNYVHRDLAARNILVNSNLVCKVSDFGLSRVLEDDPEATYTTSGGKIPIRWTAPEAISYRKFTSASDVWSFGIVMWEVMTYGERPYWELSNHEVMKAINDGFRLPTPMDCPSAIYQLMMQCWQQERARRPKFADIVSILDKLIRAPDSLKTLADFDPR

Sequence of KDR (P35968 807-1356): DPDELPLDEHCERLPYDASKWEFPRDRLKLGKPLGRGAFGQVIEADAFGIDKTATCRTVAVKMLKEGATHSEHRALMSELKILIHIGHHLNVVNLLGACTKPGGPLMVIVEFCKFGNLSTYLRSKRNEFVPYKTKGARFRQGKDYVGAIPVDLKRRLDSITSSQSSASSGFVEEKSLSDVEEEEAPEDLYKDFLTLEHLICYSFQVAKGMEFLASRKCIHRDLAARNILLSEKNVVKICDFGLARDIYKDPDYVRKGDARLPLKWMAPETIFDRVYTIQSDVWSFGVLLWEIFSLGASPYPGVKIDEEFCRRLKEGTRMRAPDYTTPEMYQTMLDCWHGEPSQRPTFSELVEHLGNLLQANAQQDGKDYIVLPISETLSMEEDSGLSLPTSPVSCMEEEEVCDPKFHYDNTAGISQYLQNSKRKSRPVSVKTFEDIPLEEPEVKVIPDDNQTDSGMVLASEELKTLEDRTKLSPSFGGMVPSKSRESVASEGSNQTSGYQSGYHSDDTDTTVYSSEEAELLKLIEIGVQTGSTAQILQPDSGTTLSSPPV
Sequence of EphB4 (P54760 605-890): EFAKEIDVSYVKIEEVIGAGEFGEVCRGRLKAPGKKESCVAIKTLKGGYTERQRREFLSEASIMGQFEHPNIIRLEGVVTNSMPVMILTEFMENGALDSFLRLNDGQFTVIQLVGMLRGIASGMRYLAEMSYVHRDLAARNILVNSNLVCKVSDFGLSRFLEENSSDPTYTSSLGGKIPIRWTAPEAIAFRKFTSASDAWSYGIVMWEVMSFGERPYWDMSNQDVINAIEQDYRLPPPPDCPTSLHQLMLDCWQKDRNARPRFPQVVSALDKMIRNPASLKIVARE

Row | Molecule | IC50 (EGFR) [nM] | IC50 (ErbB2) [nM] | IC50 (EphB4) [nM] | IC50 (KDR) [nM] | IC50 (EphA2) [nM]
1 | COc1cc2c(Nc3ccc(Cl)c(Cl)c3)ncnc2cc1OCc1nc([C@@H]2CCCN2)no1 [Example 243, N-(3,4-dichlorophenyl)-6-(methyloxy)-7-[({3-[(2S)-pyrrolidin-2-yl]-1,2,4-oxadiazol-5-yl}methyl)oxy]quinazolin-4-amine] | < 50 | < 50 | < 50 | < 50 | < 50
2 | COc1cc2c(Nc3ccc(Cl)c(Cl)c3)ncnc2cc1OCc1csc([C@@H]2CCCN2)n1 [Example 244, N-(3,4-dichlorophenyl)-6-(methyloxy)-7-[({2-[(2S)-pyrrolidin-2-yl]-1,3-thiazol-4-yl}methyl)oxy]quinazolin-4-amine] | < 50 | < 50 | < 50 | < 50 | < 50
3 | COc1cc2c(Nc3ccc(Cl)c(Cl)c3)ncnc2cc1OCc1csc(COC(=O)c2ccccc2)n1 [Example 245, [4-({[4-[(3,4-dichlorophenyl)amino]-6-(methyloxy)quinazolin-7-yl]oxy}methyl)-1,3-thiazol-2-yl]methyl benzoate] | < 50 | < 50 | < 50 | < 50 | < 50
4 | N-(3,4-dichlorophenyl)-6-(methyloxy)-7-({[3-(4-methylpiperazin-1-yl)-1,2,4-oxadiazol-5-yl]methyl}oxy)quinazolin-4-amine [Example 33] | < 50 | 50 to 1000 | < 50 | < 50 | 50 to 1000
5 | N-(3,4-dichlorophenyl)-6-(methyloxy)-7-{[(5-methyl-4,5,6,7-tetrahydro[1,3]thiazolo[5,4-c]pyridin-2-yl)methyl]oxy}quinazolin-4-amine hydrochloride [Example 34] | < 50 | < 50 | 50 to 1000 | 50 to 1000 | 50 to 1000
6 | N-(3,4-dichlorophenyl)-7-{[(5-ethyl-4,5,6,7-tetrahydro[1,3]thiazolo[5,4-c]pyridin-2-yl)methyl]oxy}-6-(methyloxy)quinazolin-4-amine hydrochloride [Example 35] | < 50 | 50 to 1000 | 50 to 1000 | < 50 | 50 to 1000

The remaining lines, values ahead:

Row | IC50 (EGFR) [nM] | IC50 (ErbB2) [nM] | IC50 (EphB4) [nM] | IC50 (KDR) [nM] | IC50 (EphA2) [nM] | Molecule
7 | < 50 | < 50 | < 50 | < 50 | < 50 | COc1cc2c(Nc3ccc(Cl)c(Cl)c3)ncnc2cc1OCc1noc(C2CCCCN2C(=O)OC(C)(C)C)n1 (stereo not shown) [Example 196, 1,1-dimethylethyl 2-[3-({[4-[(3,4-dichlorophenyl)amino]-6-(methyloxy)quinazolin-7-yl]oxy}methyl)-1,2,4-oxadiazol-5-yl]piperidine-1-carboxylate]
8 | < 50 | < 50 | < 50 | < 50 | < 50 | COc1cc2c(Nc3ccc(Cl)c(Cl)c3)ncnc2cc1OCc1nc(-c2ccc(N3CCCC3)cc2)cs1 [Example 198, N-(3,4-dichlorophenyl)-6-(methyloxy)-7-({[4-(4-pyrrolidin-1-ylphenyl)-1,3-thiazol-2-yl]methyl}oxy)quinazolin-4-amine]
9 | < 50 | < 50 | < 50 | < 50 | < 50 | CCN(CC)c1ccc(-c2csc(COc3cc4ncnc(Nc5ccc(Cl)c(Cl)c5)c4cc3OC)n2)cc1 [Example 199, N-(3,4-dichlorophenyl)-7-[({4-[4-(diethylamino)phenyl]-1,3-thiazol-2-yl}methyl)oxy]-6-(methyloxy)quinazolin-4-amine]
10 | < 50 | < 50 | < 50 | < 50 | < 50 | COc1cc2c(Nc3ccc(Cl)c(Cl)c3)ncnc2cc1OCc1csc(N2CCOCC2)n1 [Example 204, N-(3,4-dichlorophenyl)-6-(methyloxy)-7-{[(2-morpholin-4-yl-1,3-thiazol-4-yl)methyl]oxy}quinazolin-4-amine]
11 | < 50 | < 50 | < 50 | < 50 | 50 to 1000 | COc1cc2c(Nc3ccc(Cl)c(Cl)c3)ncnc2cc1OCc1nc(-c2ccc(C(C)(C)C)cc2)no1 [Example 226, N-(3,4-dichlorophenyl)-7-[({3-[4-(1,1-dimethylethyl)phenyl]-1,2,4-oxadiazol-5-yl}methyl)oxy]-6-(methyloxy)quinazolin-4-amine]
12 | < 50 | < 50 | < 50 | < 50 | < 50 | COc1cc2c(Nc3ccc(Cl)c(Cl)c3)ncnc2cc1OCc1ccc2nc(C(F)(F)F)cc(Cl)c2c1 [Example 236, 7-({[4-chloro-2-(trifluoromethyl)quinolin-6-yl]methyl}oxy)-N-(3,4-dichlorophenyl)-6-(methyloxy)quinazolin-4-amine]
13 | < 50 | < 50 | < 50 | < 50 | < 50 | COc1cc2c(Nc3ccc(Cl)c(Cl)c3)ncnc2cc1OCCC1CCCN1C (stereo not shown) [Example 237, N-(3,4-dichlorophenyl)-6-(methyloxy)-7-{[2-(1-methylpyrrolidin-2-yl)ethyl]oxy}quinazolin-4-amine]
14 | < 50 | < 50 | < 50 | < 50 | < 50 | CCN1CCC(c2nc(COc3cc4ncnc(Nc5ccc(Cl)c(Cl)c5)c4cc3OC)no2)CC1 [Example 238, N-(3,4-dichlorophenyl)-7-({[5-(1-ethylpiperidin-4-yl)-1,2,4-oxadiazol-3-yl]methyl}oxy)-6-(methyloxy)quinazolin-4-amine]
